Measurements reported in publication PMC3974779, “Pterostilbene-Isothiocyanate Conjugate Suppresses Growth of Prostate Cancer Cells Irrespective of Androgen Receptor Status” (PLoS ONE, 2014).

Key:
[1] = tested on: caspase-3 activity in PC-3 cells; assay: Caspase colorimetric protease assay; format: cell-based, human; details: PC-3, 10, 20 and 40 μM, 24 h
Experimental: (§1) Caspase activity was determined using ApoTarget caspase colorimetric protease assay sampler kit (KHZ1001; Invitrogen) according to the manufacturer’s instructions. Briefly, both the PCa cells were treated with increasing doses of conjugate and RESV for 24 h. The cells were then collected, washed in PBS, and lysed in 50 μl lysis buffer on ice for 10 min. After centrifugation, the supernatant containing 150 μg proteins were incubated with 200 μM of caspase-3 (Ac-DEVD-pNA), caspase-8 (Ac-IETD-pNA) and caspase-9 (Ac-LEHD-pNA) substrates respectively in reaction buffer at 37°C for 1 h in 96 well flat bottom plate. Levels of released pNA were then measured at 405 nm wavelength with ELISA plate reader (Fluostar optima, BMG Labtech, Germany). The fold-increase in caspase-3, -8, and -9 activities were determined by direct comparison to the level of un-induced control. For the caspase inhibitor assay, cells were pretreated with a synthetic pan-caspase inhibitor (Z-VAD-FMK), caspase-8 inhibitor (Z-IETD-FMK) and caspase-9 inhibitor (Z-LEHD-FMK) for 1 h before the addition of conjugate and the cell death were analyzed by MTT assay as discussed earlier.

[2] = tested on: caspase-8 activity in PC-3 cells; assay: Caspase colorimetric protease assay; format: cell-based, human; details: PC-3, 24 h, high dose
Experimental: as §1

[3] = tested on: caspase-3 activity in LNCaP cells; assay: Caspase colorimetric protease assay; format: cell-based, human; details: 24 h
Experimental: as §1

[4] = tested on: caspase-9 activity in PC-3 cells; assay: Caspase colorimetric protease assay; format: cell-based, human; details: PC-3, 10, 20 and 40 μM, 24 h
Experimental: as §1

[5] = tested on: caspase-8 activity in LNCaP cells; assay: Caspase colorimetric protease assay; format: cell-based, human; details: 24 h
Experimental: as §1

[6] = tested on: caspase-9 activity in LNCaP cells; assay: Caspase colorimetric protease assay; format: cell-based, human; details: 24 h
Experimental: as §1

p-Akt in LNCaP cells = assay: Immunoblot of Akt phosphorylation; format: cell-based, human; details: below 20 μM, 24 h
Experimental: (§2) The whole-cell lysates were prepared as described previously in immunoprecipitation (IP) buffer containing 50 mM Tris-HCl (pH 8.0), 150 mM NaCl, 5 mM EDTA, and 1% Triton X-100. Protein aliquots of 500 μg were then incubated overnight at 4°C using 2 μg of antibody directed against AR. The Protein A-Cl Agarose beads were then added and further incubated for 6 h at 4°C. The immunoprecipitates were washed four times with the IP buffer and the immunocomplexes were recovered by boiling in SDS sample buffer. Finally the western blot was carried out using anti-AR, anti-SRC-1 and anti-GRIP-1 antibodies (Santa Cruz, CA, USA). For western blot analysis, the cell lysates were prepared after harvesting them in lysis buffer. About 40 μg of total protein was electrophoresed by 12% SDS-PAGE, and the western blotting was carried out using standard protocol. In brief, the analyzed proteins were transferred to nylon membranes. The blots were then blocked with TBST buffer (20 mM Tris-Cl, pH 7.5, 150 mM sodium chloride, 0.05% Tween-20) containing 5% skim milk powder. They were then washed with TBST buffer and incubated overnight at 4°C with the same buffer containing appropriate amounts of primary antibodies: caspase-3, Bax, Bcl-2, Akt, p-Akt, ERK, p-ERK, AR, SRC-1, GRIP-1 (1∶500) and β-actin (1∶1000). The blots were then washed and incubated with anti-rabbit secondary antibody (1∶20,000) conjugated with horseradish peroxidase (HRP). Color development was performed in the dark by using an ECL kit (Amersham, GE Healthcare, Buckinghamshire, UK). The developed blots were subjected to densitometric analysis by ImageJ 1.43 software (NIH, USA) using β-actin as internal control.
(§3) The siRNAs against human Akt and ERK and control siRNA were purchased commercially from Santa Cruz Biotechnology (USA). The LNCaP and PC-3 PCa cells were transfected with siRNAs (at a final concentration of 100 nM) using polyfect transfection reagent (Qiagen, CA, USA) according to manufacturer’s instructions. After 24 h of transfection, the cells were washed properly and replaced with fresh medium. The cells were then treated with 20 μM conjugate for 24 h, and finally protein lysates were prepared on completion of treatment. The levels of p-Akt, p-ERK and cleaved caspase-3 expressions were detected by Western blot analysis.

p-Akt in PC-3 cells = assay: Immunoblot of Akt phosphorylation; format: cell-based, human; details: 24 h
Experimental: as §2, §3

AR in LNCaP cells = assay: Immunofluorescence staining of endogenous AR; format: cell-based, human; details: varying doses of conjugate, 20 μM RESV, DHT
Experimental: The cells were then incubated with AR rabbit polyclonal antibody diluted 1∶200 in blocking buffer for 1 h at RT. Finally, the cells were washed with PBS and incubated with FITC-labelled anti-rabbit secondary antibody diluted 1∶1000 in blocking buffer for 30 min at room temperature. The cells were then observed under a fluorescence microscope (Zeiss, Axiovert 25, Germany).

CHO cells = assay: MTT cytotoxicity assay; format: cell-based; details: Cricetulus griseus, CHO noncancer cells, 24 h exposure, read-out: IC50 value (50% growth inhibition)
Experimental: (§4) MTT assay was carried out as described previously. In brief, 5×10^3 cells in 200 μl of medium were seeded in 96-well plates (Griener, Germany). After 24 h, the cells were treated with various concentrations (0.1, 1, 10, 100 and 1000 μM) of RESV, PTER and conjugate. The control cells were treated with 0.1% DMSO (vehicle control). The cultured cells were assayed after 24 h by adding 20 μl of 5 mg/ml MTT followed by incubating at 37°C for 4 h. The MTT containing media was then aspirated and 200 μl DMSO (Himedia, Mumbai, India) was added to dissolve the formazone crystals. The optical density (OD) was measured at 570 nm using ELISA plate reader (Fluostar optima, BMG Labtech, Germany). The percentage inhibition was calculated as: [drawing 1]
(§5) The dose response curve and IC50 values were obtained by nonlinear regression analysis [non-linear regression (sigmoidal dose response with variable slope)] using Graph Pad Prism, version 5.02 software (Graph Pad Software Inc., CA, USA).

LNCaP cells = assay: MTT cytotoxicity assay; format: cell-based; details: Homo sapiens, 24 h, 24 h exposure, mean ± SEM, read-out: IC50 value (50% growth inhibition)
Experimental: as §4, §5

PC-3 cells = assay: MTT cytotoxicity assay; format: cell-based; details: Homo sapiens; PC-3, MTT, 24 h exposure, mean ± SEM; read-out: IC50 value (50% growth inhibition)
Experimental: as §4, §5

COS-1 cells = assay: MTT cytotoxicity assay; format: cell-based; details: Chlorocebus aethiops, COS-1 noncancer cells, 24 h exposure, read-out: IC50 value (50% growth inhibition)
Experimental: as §4, §5

COc1cc(/C=C/c2ccc(O)c(/C=N/NC(N)=S)c2)cc(OC)c1 [conjugate, Pterostilbene-isothiocyanate conjugate]
caspase-3 enzyme activity [1]: dose-dependent augmentation | caspase-8 activity [2]: no such induction was observed | caspase-3 activity [3]: significant increase | caspase-9 enzyme activity [4]: dose-dependent augmentation | caspase-8 activity [5]: significant increase | caspase-9 activity [6]: significant increase | effect on level of p-Akt (p-Akt in LNCaP cells): negligible effects | decrease in level of p-Akt (p-Akt in PC-3 cells; PC-3, 20 μM): ~2.2 folds | decrease in level of p-Akt (p-Akt in PC-3 cells; PC-3, 40 μM): ~4.4 folds | AR immunofluorescence intensity (AR in LNCaP cells): almost complete abolition of fluorescent intensity | IC50 (CHO cells): > 100 µM | IC50 (LNCaP cells): 40 ± 1.12 µM | IC50 (PC-3 cells): 45 ± 1.5 µM | IC50 (COS-1 cells): > 100 µM
